Values of other authors as cited in US20240058323A1, “PHARMACEUTICAL COMPOSITION CONTAINING PYRROLOQUINOLINE QUINONE TRILITHIUM SALT NONAHYDRATE COMPOUND, CAPSULE, AND PREPARATION METHOD THEREFOR” (SHANGHAI RAISING PHARMACEUTICAL CO., LTD, priority 2020, published 2024).
Structures can show the parent of a compound that is named as a salt.

Conditions: crystalline nonahydrate API

O=C(O)c1cc(C(=O)O)c2c(n1)C(=O)C(=O)c1cc(C(=O)O)[nH]c1-2 [4,5-dioxo-4,5-dihydro-1H-pyrrolo[2,3-f]quinoline-2,7,9-tricarboxylic acid lithium salt nonahydrate compound]
temperature above which water is rapidly and irreversibly lost: higher than 60 °C
